Reference: ChEMBL document CHEMBL1201862, “PubChem BioAssay data set” (2004)
The source made the active and inactive calls.

Experiments:
[1] = target: T1, Glycogen synthase kinase-3 beta (Homo sapiens, UniProt P49841); test: inhibition of human GSK3B activity – biochemical, microfluidics, dry powder samples, set 2, dose response (AID 623989); type: functional
[2] = target: T2, Glycogen synthase kinase-3 alpha (Homo sapiens, UniProt P49840); test: GSK3A enzyme blockers, homolog specificity check – biochemical, microfluidics, dry powder samples, set 2, selectivity assay for GSK3beta inhibitor project, dose response (AID 623978); type: functional
[3] = target: FAD-linked sulfhydryl oxidase ALR (Homo sapiens, UniProt P55789); test: ALR-catalysed DTT oxidation blockers – biochemical, H2O2 detection, luminescence, cherry-pick, dose response (AID 493248)
[4] = target: Cyclin-dependent kinase 5/CDK5 activator 1 (Homo sapiens, UniProt Q00535); test: inhibitors of human CDK5 activity – biochemical, microfluidic mobility shift, dry powder, set 2, selectivity assay for GSK3beta inhibitor project, dose response (AID 623979); type: functional
[5] = target: Mitogen-activated protein kinase 14 (Homo sapiens, UniProt Q16539); type: functional;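 further: part of a kinome-wide panel, MAPK14 entry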
[6] = target: Proto-oncogene tyrosine-protein kinase receptor Ret (Homo sapiens, UniProt P07949); type: functional;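 further: measured within a kinome-wide profiling panel, RET as the panel member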
Activated CDC42 kinase 1 = Activated CDC42 kinase 1 (Homo sapiens, UniProt Q07912); test: Navigating the Kinome. Panel member name: ACK1; type: functional
[7] = target: Protein kinase C theta type (Homo sapiens, UniProt Q04759); test: Navigating the Kinome. Panel member name: PRKCQ; type: functional
[8] = target: Dual specificity protein kinase CLK4 (Homo sapiens, UniProt Q9HAZ1); type: functional
[9] = target: cAMP-dependent protein kinase catalytic subunit PRKX (Homo sapiens, UniProt P51817); type: functional
[10] = target: Cyclin-dependent kinase 8 (Homo sapiens, UniProt P49336); test: Navigating the Kinome. Panel member name: CDK8; type: functional
[11] = target: Serine/threonine-protein kinase N2 (Homo sapiens, UniProt Q16513); type: functional
[12] = target: Leukocyte tyrosine kinase receptor (Homo sapiens, UniProt P29376); test: Navigating the Kinome. Panel member name: LTK; type: functional
[13] = target: Vascular endothelial growth factor receptor 2 (Homo sapiens, UniProt P35968); type: functional
[14] = target: Inhibitor of nuclear factor kappa-B kinase subunit epsilon (Homo sapiens, UniProt Q14164); test: Navigating the Kinome. Panel member name: IKBKE; type: functional
[15] = target: G protein-coupled receptor kinase 5 (Homo sapiens, UniProt P34947); test: Navigating the Kinome. Panel member name: GPRK5; type: functional
[16] = target: Serine/threonine-protein kinase TAO1 (Homo sapiens, UniProt Q7L7X3); type: functional
[17] = target: Rho-associated protein kinase 1 (Homo sapiens, UniProt Q13464); type: functional;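 further: measured within a broad kinome-wide panel profiling many kinases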
[18] = target: T1, Glycogen synthase kinase-3 beta; type: functional
[19] = target: Insulin-like growth factor 1 receptor (Homo sapiens, UniProt P08069); test: Navigating the Kinome. Panel member name: IGF1R; type: functional
[20] = target: Death-associated protein kinase 3 (Homo sapiens, UniProt O43293); type: functional;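 further: measured as one member of a kinome-wide profiling panel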
[21] = target: Tyrosine-protein kinase BTK (Homo sapiens, UniProt Q06187); type: functional
[22] = target: Mitogen-activated protein kinase kinase kinase kinase 4 (Homo sapiens, UniProt O95819); type: functional
[23] = target: Dual specificity protein kinase CLK2 (Homo sapiens, UniProt P49760); type: functional
[24] = target: Cyclin-dependent kinase 5 (Homo sapiens, UniProt Q00535); type: functional;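 further: CDK5 measured as one member of a kinase profiling panel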
[25] = target: 5'-AMP-activated protein kinase catalytic subunit alpha-1 (Homo sapiens, UniProt Q13131); type: functional
[26] = target: Cyclin-dependent kinase 7 (Homo sapiens, UniProt P50613); type: functional;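 further: value comes from a kinome-wide kinase profiling panel in which CDK7 is one member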
[27] = target: Receptor-type tyrosine-protein kinase FLT3 (Homo sapiens, UniProt P36888); type: functional;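 further: FLT3 was tested as one member of a kinome-wide kinase panel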
[28] = target: Mitogen-activated protein kinase kinase kinase kinase 2 (Homo sapiens, UniProt Q12851); type: functional;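 further: measured as one member of a kinome-wide kinase panel, with MAP4K2 as the panel entry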
[29] = target: Calcium/calmodulin-dependent protein kinase type II subunit alpha (Homo sapiens, UniProt Q9UQM7); test: Navigating the Kinome. Panel member name: CAMK2A; type: functional
[30] = target: Leucine-rich repeat serine/threonine-protein kinase 2 (Homo sapiens, UniProt Q5S007); type: functional;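 further: value from a broad kinome-wide panel profiling study in which LRRK2 was one of the kinases tested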
[31] = target: Cyclin-dependent kinase 9 (Homo sapiens, UniProt P50750); type: functional;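 further: value from the CDK9 entry of a kinome-spanning kinase panel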
[32] = target: Vascular endothelial growth factor receptor 1 (Homo sapiens, UniProt P17948); type: functional;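 further: measured within a kinome-wide profiling panel, FLT1 as the panel member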
[33] = target: Serine/threonine-protein kinase PAK 4 (Homo sapiens, UniProt O96013); type: functional;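 further: value obtained within a kinome profiling panel in which PAK4 was one of the panel members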
[34] = target: Mitogen-activated protein kinase 9 (Homo sapiens, UniProt P45984); type: functional;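 further: value from a kinome panel profiling assay, MAPK9 panel entry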
[35] = target: T2, Glycogen synthase kinase-3 alpha; type: functional
[36] = target: BDNF/NT-3 growth factors receptor (Homo sapiens, UniProt Q16620); type: functional;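 further: NTRK2 measured as one member of a broad kinome-wide kinase profiling panel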
[37] = target: Fibroblast growth factor receptor 1 (Homo sapiens, UniProt P11362); type: functional
[38] = target: cAMP-dependent protein kinase catalytic subunit alpha (Homo sapiens, UniProt P17612); type: functional
[39] = target: Tyrosine-protein kinase receptor TYRO3 (Homo sapiens, UniProt Q06418); type: functional;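 further: TYRO3 value obtained as one member of a kinome-wide profiling panel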
[40] = target: Serine/threonine-protein kinase pim-1 (Homo sapiens, UniProt P11309); type: functional
[41] = target: Ribosomal protein S6 kinase alpha-3 (Homo sapiens, UniProt P51812); type: functional;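 further: measured within a kinome-wide profiling panel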
[42] = target: Tyrosine-protein kinase Lck (Homo sapiens, UniProt P06239); type: functional;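 further: lck was assayed as one member of a kinase panel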
[43] = target: Mitogen-activated protein kinase 8 (Homo sapiens, UniProt P45983); type: functional;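 further: value comes from one member of a kinome-wide kinase profiling panel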
[44] = target: Dual specificity mitogen-activated protein kinase kinase 2 (Homo sapiens, UniProt P36507); test: Navigating the Kinome. Panel member name: MAP2K2; type: functional
[45] = target: Serine/threonine-protein kinase D3 (Homo sapiens, UniProt O94806); type: functional;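 further: determined within a kinase panel screen, with PRKCN as the panel member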
[46] = target: Tyrosine-protein kinase Fyn (Homo sapiens, UniProt P06241); type: functional
[47] = target: Tyrosine-protein kinase JAK2 (Homo sapiens, UniProt O60674); type: functional;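 further: JAK2 tested as one member of a kinase panel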
Aurora kinase A = Aurora kinase A (Homo sapiens, UniProt O14965); type: functional;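 further: value from the Navigating the Kinome kinase panel profiling, panel entry STK6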
[48] = target: Macrophage-stimulating protein receptor (Homo sapiens, UniProt Q04912); test: Navigating the Kinome. Panel member name: MST1R; type: functional
[49] = target: ALK tyrosine kinase receptor (Homo sapiens, UniProt Q9UM73); type: functional;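 further: ALK tested as one member of a kinase panel screen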
[50] = target: Tyrosine-protein kinase JAK3 (Homo sapiens, UniProt P52333); type: functional
[51] = target: Dual specificity tyrosine-phosphorylation-regulated kinase 1A (Homo sapiens, UniProt Q13627); type: functional;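 further: measured against DYRK1A as one member of a broad kinome profiling panel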
[52] = target: Macrophage colony-stimulating factor 1 receptor (Homo sapiens, UniProt P07333); type: functional;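 further: value comes from the Navigating the Kinome screening panel, CSF1R member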
Activin receptor type-1 = Activin receptor type-1 (Homo sapiens, UniProt Q04771); test: Navigating the Kinome. Panel member name: ACVR1; type: functional
[53] = target: Platelet-derived growth factor receptor alpha (Homo sapiens, UniProt P16234); test: Navigating the Kinome. Panel member name: PDGFRA; type: functional
[54] = target: Tyrosine-protein kinase ABL1 (Homo sapiens, UniProt P00519); type: functional
[55] = target: Serine/threonine-protein kinase TBK1 (Homo sapiens, UniProt Q9UHD2); test: Navigating the Kinome. Panel member name: TBK1; type: functional
[56] = target: Dual specificity tyrosine-phosphorylation-regulated kinase 1B (Homo sapiens, UniProt Q9Y463); test: Navigating the Kinome. Panel member name: DYRK1B; type: functional
[57] = target: Dual specificity mitogen-activated protein kinase kinase 1 (Homo sapiens, UniProt Q02750); test: Navigating the Kinome. Panel member name: MAP2K1; type: functional

T2 sequence (P49840 whole entry): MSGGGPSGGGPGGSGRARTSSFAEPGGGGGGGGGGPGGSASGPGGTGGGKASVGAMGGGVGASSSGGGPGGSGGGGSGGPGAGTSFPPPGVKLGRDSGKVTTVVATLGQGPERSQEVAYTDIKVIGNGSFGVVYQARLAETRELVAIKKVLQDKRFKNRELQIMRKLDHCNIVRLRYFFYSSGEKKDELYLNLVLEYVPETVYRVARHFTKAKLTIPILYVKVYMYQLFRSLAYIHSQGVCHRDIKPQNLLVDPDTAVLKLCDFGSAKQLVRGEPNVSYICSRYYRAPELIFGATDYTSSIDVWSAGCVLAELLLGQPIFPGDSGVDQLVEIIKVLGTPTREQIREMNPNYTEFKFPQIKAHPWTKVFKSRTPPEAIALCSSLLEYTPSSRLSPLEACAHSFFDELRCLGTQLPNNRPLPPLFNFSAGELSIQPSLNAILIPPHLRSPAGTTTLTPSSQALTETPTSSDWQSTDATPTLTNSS
T1 sequence (P49841 whole entry): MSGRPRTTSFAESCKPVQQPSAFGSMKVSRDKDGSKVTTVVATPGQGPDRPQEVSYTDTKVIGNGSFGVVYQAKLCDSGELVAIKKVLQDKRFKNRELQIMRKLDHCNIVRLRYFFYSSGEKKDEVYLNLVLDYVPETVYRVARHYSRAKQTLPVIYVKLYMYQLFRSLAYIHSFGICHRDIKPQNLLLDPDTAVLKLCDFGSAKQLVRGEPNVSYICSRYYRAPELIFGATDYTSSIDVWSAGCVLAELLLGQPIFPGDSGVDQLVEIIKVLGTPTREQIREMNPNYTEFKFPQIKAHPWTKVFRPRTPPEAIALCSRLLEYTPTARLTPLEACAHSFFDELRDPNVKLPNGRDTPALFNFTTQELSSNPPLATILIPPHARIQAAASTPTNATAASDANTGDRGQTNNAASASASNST
Cyclin-dependent kinase 8, sequence (P49336 whole entry): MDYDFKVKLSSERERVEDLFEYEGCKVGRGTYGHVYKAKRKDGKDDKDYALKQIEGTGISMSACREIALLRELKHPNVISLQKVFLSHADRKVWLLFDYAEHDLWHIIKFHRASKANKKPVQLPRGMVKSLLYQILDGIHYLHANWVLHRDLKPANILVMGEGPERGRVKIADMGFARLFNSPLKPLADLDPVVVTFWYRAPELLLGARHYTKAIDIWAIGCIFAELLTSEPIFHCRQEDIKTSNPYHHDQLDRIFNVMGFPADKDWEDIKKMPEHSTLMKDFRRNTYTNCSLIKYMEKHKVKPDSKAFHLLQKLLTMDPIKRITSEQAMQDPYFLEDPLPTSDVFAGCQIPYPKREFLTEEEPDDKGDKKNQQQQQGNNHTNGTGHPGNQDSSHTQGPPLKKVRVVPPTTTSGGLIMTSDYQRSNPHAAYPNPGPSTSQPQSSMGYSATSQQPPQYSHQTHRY
Activin receptor type-1, sequence (Q04771 whole entry): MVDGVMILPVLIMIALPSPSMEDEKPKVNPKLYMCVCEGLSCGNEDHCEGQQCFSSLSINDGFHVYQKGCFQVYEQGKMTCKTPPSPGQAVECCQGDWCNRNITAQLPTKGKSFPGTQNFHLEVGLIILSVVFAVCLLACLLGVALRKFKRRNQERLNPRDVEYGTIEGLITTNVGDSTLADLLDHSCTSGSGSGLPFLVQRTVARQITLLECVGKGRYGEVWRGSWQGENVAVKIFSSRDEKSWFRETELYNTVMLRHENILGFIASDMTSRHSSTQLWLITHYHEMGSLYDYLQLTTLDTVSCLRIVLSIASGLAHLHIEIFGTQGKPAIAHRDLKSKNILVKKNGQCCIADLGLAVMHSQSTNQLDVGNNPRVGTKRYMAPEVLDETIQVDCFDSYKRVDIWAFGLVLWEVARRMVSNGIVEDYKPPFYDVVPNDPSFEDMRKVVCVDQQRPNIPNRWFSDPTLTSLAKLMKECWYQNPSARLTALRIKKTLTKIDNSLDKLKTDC
Serine/threonine-protein kinase N2, sequence (Q16513 whole entry): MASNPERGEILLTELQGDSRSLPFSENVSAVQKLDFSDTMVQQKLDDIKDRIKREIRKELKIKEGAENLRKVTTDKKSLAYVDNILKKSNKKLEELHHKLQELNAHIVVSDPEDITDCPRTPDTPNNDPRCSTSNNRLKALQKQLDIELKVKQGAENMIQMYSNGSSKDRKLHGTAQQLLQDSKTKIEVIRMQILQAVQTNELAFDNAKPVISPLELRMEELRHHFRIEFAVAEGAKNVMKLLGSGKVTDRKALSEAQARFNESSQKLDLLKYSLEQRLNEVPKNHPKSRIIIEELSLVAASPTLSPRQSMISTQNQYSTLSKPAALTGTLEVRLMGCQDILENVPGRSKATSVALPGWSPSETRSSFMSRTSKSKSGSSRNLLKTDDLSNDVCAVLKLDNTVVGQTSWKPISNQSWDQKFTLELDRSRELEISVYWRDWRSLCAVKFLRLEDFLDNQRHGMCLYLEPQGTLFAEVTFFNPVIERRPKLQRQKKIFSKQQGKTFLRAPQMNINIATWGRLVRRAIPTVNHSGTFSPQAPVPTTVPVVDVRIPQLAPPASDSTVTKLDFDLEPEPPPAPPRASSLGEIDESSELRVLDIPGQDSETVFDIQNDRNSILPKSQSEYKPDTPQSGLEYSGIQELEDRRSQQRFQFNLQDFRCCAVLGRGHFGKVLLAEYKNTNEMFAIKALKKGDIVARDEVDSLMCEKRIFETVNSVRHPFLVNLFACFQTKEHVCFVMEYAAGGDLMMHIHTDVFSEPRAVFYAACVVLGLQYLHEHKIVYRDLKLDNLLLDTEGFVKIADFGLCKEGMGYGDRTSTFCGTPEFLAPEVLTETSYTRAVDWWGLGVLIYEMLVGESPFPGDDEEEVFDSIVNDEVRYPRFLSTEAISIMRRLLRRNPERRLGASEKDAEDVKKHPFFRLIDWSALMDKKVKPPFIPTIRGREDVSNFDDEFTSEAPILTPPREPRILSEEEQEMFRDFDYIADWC
Death-associated protein kinase 3, sequence (O43293 whole entry): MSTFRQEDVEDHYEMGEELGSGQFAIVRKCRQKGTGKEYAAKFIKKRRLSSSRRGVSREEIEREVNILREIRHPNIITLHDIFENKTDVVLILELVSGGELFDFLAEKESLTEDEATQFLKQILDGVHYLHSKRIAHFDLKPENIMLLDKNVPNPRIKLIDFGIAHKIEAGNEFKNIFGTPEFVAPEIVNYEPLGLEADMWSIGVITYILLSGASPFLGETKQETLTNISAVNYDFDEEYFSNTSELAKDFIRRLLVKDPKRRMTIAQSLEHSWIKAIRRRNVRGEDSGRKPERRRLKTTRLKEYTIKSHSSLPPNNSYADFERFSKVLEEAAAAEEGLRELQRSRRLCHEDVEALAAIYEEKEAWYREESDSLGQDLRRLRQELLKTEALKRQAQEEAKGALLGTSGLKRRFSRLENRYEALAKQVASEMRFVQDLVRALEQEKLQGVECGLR
Serine/threonine-protein kinase PAK 4, sequence (O96013 whole entry): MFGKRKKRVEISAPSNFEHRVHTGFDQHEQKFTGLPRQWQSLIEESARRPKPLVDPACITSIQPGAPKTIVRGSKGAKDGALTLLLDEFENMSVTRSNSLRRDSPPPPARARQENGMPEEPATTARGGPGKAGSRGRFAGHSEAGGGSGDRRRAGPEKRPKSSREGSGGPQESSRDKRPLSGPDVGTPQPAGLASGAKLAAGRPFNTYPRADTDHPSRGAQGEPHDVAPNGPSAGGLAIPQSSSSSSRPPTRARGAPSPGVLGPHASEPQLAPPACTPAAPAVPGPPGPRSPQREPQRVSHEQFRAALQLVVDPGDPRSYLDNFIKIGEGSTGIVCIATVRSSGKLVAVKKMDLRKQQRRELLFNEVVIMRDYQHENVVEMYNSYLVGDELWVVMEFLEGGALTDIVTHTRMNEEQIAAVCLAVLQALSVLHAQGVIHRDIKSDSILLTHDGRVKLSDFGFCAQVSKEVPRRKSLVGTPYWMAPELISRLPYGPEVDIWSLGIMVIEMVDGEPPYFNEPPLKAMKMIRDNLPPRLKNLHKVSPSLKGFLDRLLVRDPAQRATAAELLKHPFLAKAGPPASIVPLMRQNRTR
Cyclin-dependent kinase 5, sequence (Q00535 whole entry): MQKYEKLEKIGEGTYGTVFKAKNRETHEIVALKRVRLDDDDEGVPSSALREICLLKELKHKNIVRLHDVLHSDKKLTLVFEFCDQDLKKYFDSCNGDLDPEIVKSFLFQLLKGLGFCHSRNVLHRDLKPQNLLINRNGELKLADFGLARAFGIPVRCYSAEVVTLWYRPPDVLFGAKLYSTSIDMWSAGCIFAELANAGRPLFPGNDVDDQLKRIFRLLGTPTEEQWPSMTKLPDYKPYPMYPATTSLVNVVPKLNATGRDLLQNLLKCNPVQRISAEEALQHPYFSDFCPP
Cyclin-dependent kinase 5/CDK5 activator 1, sequence (Q00535 whole entry): as above
Cyclin-dependent kinase 5/CDK5 activator 1, sequence (Q15078 whole entry, further chain): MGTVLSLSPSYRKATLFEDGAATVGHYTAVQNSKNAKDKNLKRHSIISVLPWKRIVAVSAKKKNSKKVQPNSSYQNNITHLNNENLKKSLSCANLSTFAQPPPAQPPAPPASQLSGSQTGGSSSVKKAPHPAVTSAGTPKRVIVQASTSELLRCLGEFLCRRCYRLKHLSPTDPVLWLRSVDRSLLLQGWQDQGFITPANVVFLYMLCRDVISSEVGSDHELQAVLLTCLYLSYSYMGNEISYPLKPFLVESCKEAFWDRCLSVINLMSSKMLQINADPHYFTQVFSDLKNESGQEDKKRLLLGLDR

COc1ccc(S(=O)(=O)Nc2c(C(=O)O)[nH]c3ccc(OC)cc23)cc1
AC50 [1]: 1.46 µM (active) | AC50 [2]: 5.47 µM (active) | AC50 [3]: 2.51 µM (active) | AC50 [4]: 3.7 µM (active)

CC1CCN(C(=O)CC#N)CC1c1ncc2cnc3[nH]ccc3n12 (stereo not given)
Ki [5]: > 3.98 µM (inactive) | Ki [6]: 2.51 µM (active) | Ki (Activated CDC42 kinase 1): > 3.16 µM (inactive) | Ki [7]: > 1.26 µM (inactive) | Ki [8]: > 2.51 µM (inactive) | Ki [9]: 0.316 µM (active) | Ki [10]: > 3.16 µM (inactive) | Ki [11]: 0.316 µM (active) | Ki [12]: 1 µM (active) | Ki [13]: 1.26 µM (active) | Ki [14]: > 3.16 µM (inactive) | Ki [15]: > 3.98 µM (inactive) | Ki [16]: > 6.31 µM (inactive) | Ki [17]: 0.0251 µM (active) | Ki [18]: > 3.98 µM (inactive) | Ki [19]: > 2.51 µM (inactive) | Ki [20]: > 5.01 µM (inactive) | Ki [21]: > 6.31 µM (inactive) | Ki [22]: > 5.01 µM (inactive) | Ki [23]: > 3.98 µM (inactive) | Ki [24]: > 3.16 µM (inactive) | Ki [25]: > 3.16 µM (inactive) | Ki [26]: > 3.98 µM (inactive) | Ki [27]: > 3.16 µM (inactive) | Ki [28]: > 2.51 µM (inactive) | Ki [29]: > 7.94 µM (inactive) | Ki [30]: 0.316 µM (active) | Ki [31]: > 1.58 µM (inactive) | Ki [32]: > 3.98 µM (inactive) | Ki [33]: > 5.01 µM (inactive) | Ki [34]: > 3.98 µM (inactive) | Ki [35]: 2.51 µM (active) | Ki [36]: > 3.98 µM (inactive) | Ki [37]: > 3.98 µM (inactive) | Ki [38]: 0.501 µM (active) | Ki [39]: > 3.16 µM (inactive) | Ki [40]: > 6.31 µM (inactive) | Ki [41]: > 3.98 µM (inactive) | Ki [42]: 2.51 µM (active) | Ki [43]: > 2.51 µM (inactive) | Ki [44]: > 3.98 µM (inactive) | Ki [45]: > 3.98 µM (inactive) | Ki [46]: > 6.31 µM (inactive) | Ki [47]: 0.000794 µM (active) | Ki (Aurora kinase A): > 1.58 µM (inactive) | Ki [48]: > 2.51 µM (inactive) | Ki [49]: > 6.31 µM (inactive) | Ki [50]: 0.00316 µM (active) | Ki [51]: > 2 µM (inactive) | Ki [52]: > 2.51 µM (inactive) | Ki (Activin receptor type-1): > 3.98 µM (inactive) | Ki [53]: > 2.51 µM (inactive) | Ki [54]: > 3.98 µM (inactive) | Ki [55]: > 3.16 µM (inactive) | Ki [56]: > 2.51 µM (inactive) | Ki [57]: > 3.16 µM (inactive)
